According to ChEMBL document CHEMBL3585344, “Thiazole-based aminopyrimidines and N-phenylpyrazolines as potent antimicrobial agents: synthesis and biological evaluation” (2014):
In brackets after ≈: the same amount, converted by molar mass.

Experiments:
Trichoderma viride [1] = assay: Fungicidal activity against Trichoderma viride IAM 5061 after 72 hrs by microdilution method; format: functional
Aspergillus fumigatus [2] = assay: Fungicidal activity against Aspergillus fumigatus isolated from human after 72 hrs by microdilution method; format: functional
Bacillus cereus [3] = assay: Antibacterial activity against Bacillus cereus clinical isolate after 24 hrs by microdilution method; format: functional
Listeria monocytogenes [4] = assay: Antibacterial activity against Listeria monocytogenes NCTC 7973 after 24 hrs by microdilution method; format: functional; settings: NCTC 7973, 24 h
Escherichia coli [5] = assay: Antibacterial activity against Escherichia coli ATCC 35210 after 24 hrs by microdilution method; format: functional; settings: ATCC 35210, 24 h
Escherichia coli [6] = assay: Bactericidal activity against Escherichia coli ATCC 35210 after 72 hrs by microdilution method; format: functional
Trichoderma viride [7] = assay: Antifungal activity against Trichoderma viride IAM 5061 after 72 hrs by microdilution method; format: functional; settings: IAM 5061, 72 h
Aspergillus flavus [8] = assay: Fungicidal activity against Aspergillus flavus ATCC 9643 after 72 hrs by microdilution method; format: functional
Talaromyces funiculosus [9] = assay: Fungicidal activity against Penicillium funiculosum ATCC 36839 after 72 hrs by microdilution method; format: functional
Salmonella typhimurium [10] = assay: Bactericidal activity against Salmonella typhimurium ATCC 13311 after 72 hrs by microdilution method; format: functional, Salmonella enterica subsp. enterica serovar Typhimurium
Listeria monocytogenes [11] = assay: Bactericidal activity against Listeria monocytogenes NCTC 7973 after 72 hrs by microdilution method; format: functional
Enterobacter cloacae [12] = assay: Antibacterial activity against Enterobacter cloacae ATCC 35030 isolated from human after 24 hrs by microdilution method; format: functional; settings: ATCC 35030, 24 h
Aspergillus ochraceus [13] = assay: Antifungal activity against Aspergillus ochraceus ATCC 12066 after 72 hrs by microdilution method; format: functional; settings: ATCC 12066, 72 h
Penicillium ochrochloron [14] = assay: Fungicidal activity against Penicillium ochrochloron ATCC 9112 after 72 hrs by microdilution method; format: functional
Aspergillus flavus [15] = assay: Antifungal activity against Aspergillus flavus ATCC 9643 after 72 hrs by microdilution method; format: functional; settings: ATCC 9643, 72 h
Aspergillus niger [16] = assay: Antifungal activity against Aspergillus niger ATCC 6275 after 72 hrs by microdilution method; format: functional; settings: ATCC 6275, 72 h
Talaromyces funiculosus [17] = assay: Antifungal activity against Penicillium funiculosum ATCC 36839 after 72 hrs by microdilution method; format: functional; settings: ATCC 36839, 72 h
Pseudomonas aeruginosa [18] = assay: Antibacterial activity against Pseudomonas aeruginosa ATCC 27853 after 24 hrs by microdilution method; format: functional; settings: ATCC 27853, 24 h
Salmonella typhimurium [19] = assay: Antibacterial activity against Salmonella typhimurium ATCC 13311 after 24 hrs by microdilution method; format: functional, Salmonella enterica subsp. enterica serovar Typhimurium; settings: Salmonella enterica, ATCC 13311, 24 h
Aspergillus fumigatus [20] = assay: Antifungal activity against Aspergillus fumigatus isolated from human after 72 hrs by microdilution method; format: functional
Penicillium ochrochloron [21] = assay: Antifungal activity against Penicillium ochrochloron ATCC 9112 after 72 hrs by microdilution method; format: functional; settings: ATCC 9112, 72 h
Staphylococcus aureus [22] = assay: Antibacterial activity against Staphylococcus aureus ATCC 6538 after 24 hrs by microdilution method; format: functional; settings: ATCC 6538, 24 h
Aspergillus ochraceus [23] = assay: Fungicidal activity against Aspergillus ochraceus ATCC 12066 after 72 hrs by microdilution method; format: functional
Pseudomonas aeruginosa [24] = assay: Bactericidal activity against Pseudomonas aeruginosa ATCC 27853 after 72 hrs by microdilution method; format: functional
Aspergillus niger [25] = assay: Fungicidal activity against Aspergillus niger ATCC 6275 after 72 hrs by microdilution method; format: functional
Micrococcus flavus [26] = assay: Bactericidal activity against Micrococcus flavus ATCC 10240 after 72 hrs by microdilution method; format: functional
Micrococcus flavus [27] = assay: Antibacterial activity against Micrococcus flavus ATCC 10240 after 24 hrs by microdilution method; format: functional; settings: ATCC 10240, 24 h
Bacillus cereus [28] = assay: Bactericidal activity against Bacillus cereus clinical isolate after 72 hrs by microdilution method; format: functional
Staphylococcus aureus [29] = assay: Bactericidal activity against Staphylococcus aureus ATCC 6538 after 72 hrs by microdilution method; format: functional
Candida albicans [30] = assay: Antifungal activity against Candida albicans ATCC 10231 isolated from human after 72 hrs by microdilution method; format: functional; settings: ATCC 10231, 72 h
Candida albicans [31] = assay: Fungicidal activity against Candida albicans ATCC 10231 isolated from human after 72 hrs by microdilution method; format: functional
Enterobacter cloacae [32] = assay: Bactericidal activity against Enterobacter cloacae ATCC 35030 isolated from human after 72 hrs by microdilution method; format: functional
Enterococcus faecalis [33] = assay: Antibacterial activity against Enterococcus faecalis ATCC 7080 isolated from human after 24 hrs by microdilution method; format: functional; settings: ATCC 7080, 24 h
Aspergillus versicolor [34] = assay: Fungicidal activity against Aspergillus versicolor ATCC 11730 after 72 hrs by microdilution method; format: functional
Aspergillus versicolor [35] = assay: Antifungal activity against Aspergillus versicolor ATCC 11730 after 72 hrs by microdilution method; format: functional; settings: ATCC 11730, 72 h
Enterococcus faecalis [36] = assay: Bactericidal activity against Enterococcus faecalis ATCC 7080 isolated from human after 72 hrs by microdilution method; format: functional

Row | Structure (SMILES) | MFC99.5 (Trichoderma viride [1]) [×10⁻² umol/ml] | MFC99.5 (Aspergillus fumigatus [2]) [×10⁻² umol/ml] | MIC (Bacillus cereus [3]) [µM] | MIC (Listeria monocytogenes [4]) [µM] | MIC (Escherichia coli [5]) [µM] | MBC99.5 (Escherichia coli [6]) [×10⁻² umol/ml] | MIC (Trichoderma viride [7]) [µM] | MFC99.5 (Aspergillus flavus [8]) [×10⁻² umol/ml] | MFC99.5 (Talaromyces funiculosus [9]) [×10⁻² umol/ml] | MBC99.5 (Salmonella typhimurium [10]) [×10⁻² umol/ml] | MBC99.5 (Listeria monocytogenes [11]) [×10⁻² umol/ml] | MIC (Enterobacter cloacae [12]) [µM] | MIC (Pseudomonas aeruginosa [18]) [µM] | MIC (Salmonella typhimurium [19]) [µM] | MIC (Staphylococcus aureus [22]) [µM] | MBC99.5 (Pseudomonas aeruginosa [24]) [×10⁻² umol/ml] | MBC99.5 (Micrococcus flavus [26]) [×10⁻² umol/ml] | MIC (Micrococcus flavus [27]) [µM] | MBC99.5 (Bacillus cereus [28]) [×10⁻² umol/ml] | MBC99.5 (Staphylococcus aureus [29]) [×10⁻² umol/ml] | further results
1 | CNc1nc(C)c(-c2cc(-c3ccccc3)nc(N)n2)s1 | 3.37 | 6.74 | 33.7 (≈ 10 µg/mL) | 101 (≈ 30 µg/mL) | 33.7 (≈ 10 µg/mL) | 6.74 | 25.2 (≈ 7.49 µg/mL) | 6.74 | 6.74 | 6.74 | 11.81 | 67.4 (≈ 20 µg/mL) | 33.7 (≈ 10 µg/mL) | 33.7 (≈ 10 µg/mL) | 84.1 (≈ 25 µg/mL) | 6.74 | 8.41 | 33.7 (≈ 10 µg/mL) | 6.74 | 10.1 | MIC (Aspergillus ochraceus [13]): 33.7 µM (≈ 10 µg/mL); MFC99.5 (Penicillium ochrochloron [14]): 5.05 ×10⁻² umol/ml; MIC (Aspergillus flavus [15]): 50.5 µM (≈ 15 µg/mL); MIC (Aspergillus niger [16]): 50.5 µM (≈ 15 µg/mL); MIC (Talaromyces funiculosus [17]): 33.7 µM (≈ 10 µg/mL); MIC (Aspergillus fumigatus [20]): 50.5 µM (≈ 15 µg/mL); MIC (Penicillium ochrochloron [21]): 33.7 µM (≈ 10 µg/mL); MFC99.5 (Aspergillus ochraceus [23]): 6.74 ×10⁻² umol/ml; MFC99.5 (Aspergillus niger [25]): 6.74 ×10⁻² umol/ml; MIC (Candida albicans [30]): 33.7 µM (≈ 10 µg/mL); MFC99.5 (Candida albicans [31]): 6.74 ×10⁻² umol/ml; MBC99.5 (Enterobacter cloacae [32]): 8.41 ×10⁻² umol/ml
2 | CNc1nc(C)c(C2=NN(c3ccccc3)C(c3ccc(F)cc3)C2)s1 (configuration not stated) | 47.8 | 10.92 | 54.6 (≈ 20 µg/mL) | 54.6 (≈ 20 µg/mL) | 54.6 (≈ 20 µg/mL) | 47.8 | 109 (≈ 40 µg/mL) | 47.8 | 27.3 | 27.3 | 95.5 | – | 27.3 (≈ 10 µg/mL) | 54.6 (≈ 20 µg/mL) | 27.3 (≈ 10 µg/mL) | 27.3 | 47.8 | 54.6 (≈ 20 µg/mL) | 27.3 | 27.3 | MIC (Enterococcus faecalis [33]): 54.6 µM (≈ 20 µg/mL); MFC99.5 (Aspergillus versicolor [34]): 21.4 ×10⁻² umol/ml; MIC (Aspergillus ochraceus [13]): 54.6 µM (≈ 20 µg/mL); MFC99.5 (Penicillium ochrochloron [14]): 47.8 ×10⁻² umol/ml; MIC (Aspergillus flavus [15]): 54.6 µM (≈ 20 µg/mL); MIC (Aspergillus niger [16]): 478 µM (≈ 175 µg/mL); MIC (Talaromyces funiculosus [17]): 109 µM (≈ 40 µg/mL); MIC (Aspergillus versicolor [35]): 54.6 µM (≈ 20 µg/mL); MIC (Aspergillus fumigatus [20]): 54.6 µM (≈ 20 µg/mL); MIC (Penicillium ochrochloron [21]): 214 µM (≈ 78.4 µg/mL); MBC99.5 (Enterococcus faecalis [36]): 27.3 ×10⁻² umol/ml; MFC99.5 (Aspergillus ochraceus [23]): 27.3 ×10⁻² umol/ml; MFC99.5 (Aspergillus niger [25]): 95.5 ×10⁻² umol/ml
3 | CC1(C)S[C@@H]2[C@H](NC(=O)[C@H](N)c3ccccc3)C(=O)N2[C@H]1C(=O)O [AMPICILLIN] | – | – | 248 (≈ 86.7 µg/mL) | 372 (≈ 130 µg/mL) | 372 (≈ 130 µg/mL) | 49.2 | – | – | – | 49.2 | 74.4 | 248 (≈ 86.7 µg/mL) | 744 (≈ 260 µg/mL) | 248 (≈ 86.7 µg/mL) | 248 (≈ 86.7 µg/mL) | 124 | 37.2 | 248 (≈ 86.7 µg/mL) | 37.2 | 37.2 | MIC (Enterococcus faecalis [33]): 248 µM (≈ 86.7 µg/mL); MBC99.5 (Enterococcus faecalis [36]): 37.2 ×10⁻² umol/ml; MBC99.5 (Enterobacter cloacae [32]): 37.2 ×10⁻² umol/ml
